US10363239B2, “Method for inhibiting growth of cancer cells” (Pain Therapeutics, Inc., priority 2013, dated 2019)
Like-named read-outs stand apart in the source and are kept apart here.

Legend:
[1] = target: FLNA pentapeptide of SEQ ID NO: 1 (Bn-VAKGL) (Homo sapiens, UniProt P21333); test: FITC-NLX-based FLNA screening assay (inhibition of FITC-naloxone binding to Bn-VAKGL on streptavidin plates); conditions: 10 nM FITC-NLX
mu opiate receptor (MOR) = test: MOR agonist activity using [35S]GTPγS binding assay in striatal membranes; type: biochemical
Procedure: To assess the mu opiate receptor (MOR) agonist activity of positive compounds from the FLNA screening, compounds were tested in a [^35S]GTPγS binding assay using striatal membranes. […] This assay measures a functional consequence of receptor occupancy at one of the earliest receptor-mediated events. The assay permits traditional pharmacological parameters of potency, efficacy and antagonist affinity, with the advantage that agonist measures are not subjected to amplification or other modulation that may occur when analyzing parameters further downstream of the receptor.
Thus, striatal tissue was homogenized in 10 volumes of ice cold 25 mM HEPES buffer, pH 7.4, which contained 1 mM EGTA, 100 mM sucrose, 50 μg/ml leupeptin, 0.04 mM PMSF, 2 μg/ml soybean trypsin inhibitor and 0.2% 2-mercaptoethanol. The homogenates were centrifuged at 800×g for 5 minutes and the supernatants were centrifuged at 49,000×g for 20 minutes. The resulting pellets were suspended in 10 volume of reaction buffer, which contained 25 mM HEPES, pH 7.5, 100 mM NaCl, 50 μg/ml leupeptin, 2 μg/ml soybean trypsin inhibitor, 0.04 mM PMSF and 0.02% […].
The resultant striatal membrane preparation (200 μg) was admixed and maintained (incubated) at 30° C. for 5 minutes in reaction buffer as above that additionally contained 1 mM MgCl2 and 0.5 nM [^35S]GTPγS (0.1 μCi/assay, PerkinElmer Life and Analytical Sciences) in a total volume of 250 μl and continued for 5 minutes in the absence or presence of 0.1-10 μM of an assayed compound of interest. The reaction was terminated by dilution with 750 μl of ice-cold reaction buffer that contained 20 mM MgCl2 and 1 mM EGTA and immediate centrifugation at 16,000×g for 5 minutes.
The resulting pellet was solubilized by sonicating for 10 seconds in 0.5 ml of immunoprecipitation buffer containing 0.5% digitonin, 0.2% sodium cholate and 0.5% NP-40. Normal rabbit serum (1 μl) was added to 1 ml of lysate and incubated at 25° C. for 30 minutes. Nonspecific immune complexes were removed by incubation with 25 μl of protein A/G-conjugated agarose beads at 25° C. for 30 minutes followed by centrifugation at 5,000×g at 4° C. for 5 minutes. The supernatant was divided and separately incubated at 25° C. for 30 minutes with antibodies raised against Gαo proteins (1:1,000 dilutions).
The immunocomplexes so formed were collected by incubation at 25° C. for 30 minutes with 40 μl of agarose-conjugated protein A/G beads and centrifugation at 5,000×g at 4° C. for 5 minutes. The pellet was washed and suspended in buffer containing 50 mM Tris-HCl, pH 8.0, and 1% NP-40. The radioactivity in the suspension was determined by liquid scintillation spectrometry.

[2] = read-out: Percent Binding Inhibition, FLNA-binding compound 0.01 μM
[3] = read-out: Percent Binding Inhibition, FLNA-binding compound 0.1 μM
[4] = read-out: Percent Binding Inhibition, FLNA-binding compound 1 μM
[5] = Series C-2, 0.1 μM compound, relative to DAMGO
[6] = Series C-2, 0.1 μM compound, [35S]GTPγS binding to Gαo, striatal membranes
[7] = Series C-2, 1 μM compound + 1 μM β-FNA
[8] = Series C-2, 1 μM compound + β-FNA, relative to DAMGO + BFNA
[9] = Series C-2, 1 μM compound, relative to DAMGO
[10] = Series C-2, 1 μM compound, [35S]GTPγS binding to Gαo, striatal membranes
[11] = FLNA-binding compound 0.01 μM, read-out: Percent Binding Inhibition
[12] = FLNA-binding compound 0.1 μM, read-out: Percent Binding Inhibition
[13] = FLNA-binding compound 1 μM, read-out: Percent Binding Inhibition

Structure (SMILES) | inhibition at 0.01 µM [1, 2] | inhibition at 0.1 µM [1, 3] | inhibition at 1 µM [1, 4] | % DAMGO (0.1 μM) (mu opiate receptor (MOR); [5]) | MOR agonist activity, percent [35S]GTPγS binding at the stated compound concentration (mu opiate receptor (MOR); [6]) | MOR agonist activity, percent [35S]GTPγS binding at the stated compound concentration (mu opiate receptor (MOR); [7]) | % DAMGO + BFNA (mu opiate receptor (MOR); [8]) | % DAMGO (1 μM) (mu opiate receptor (MOR); [9]) | MOR agonist activity, percent [35S]GTPγS binding at the stated compound concentration (mu opiate receptor (MOR); [10]) | inhibition at 0.01 µM [1, 11] | inhibition at 0.1 µM [1, 12] | inhibition at 1 µM [1, 13] | also measured
C=CCN1CCC2(CC1)OCCN2S(=O)(=O)c1ccc(OC)cc1 [Compound C0091M] | 38.1% | 39.8% | 46.3% | 118.1% | 207.9% | 80.8% | 367.3% | 108.5% | 274.4% | – | – | – | –
CC(=O)c1ccc(S(=O)(=O)N2CCOC23CCN(CC2CC2)CC3)cc1 [Compound C0095M] | – | – | – | 107.4% | 189.1% | 107.7% | 489.5% | 88.8% | 224.6% | 40.1% | 46.6% | 50.5% | –
CC1CCC(C)C(OCC(O)CN2CC(C)OC(C)C2)C1 (stereo not drawn) [Compound A0022] | – | – | – | – | – | – | – | – | – | 41.9% | 49.7% | 56.8% | MOR agonist activity ([35S]GTPγS binding), FLNA-Binding Compound as Agonist 0.1 μM (mu opiate receptor (MOR); 0.1 μM compound): 154.1%; % DAMGO (0.1 μM) (mu opiate receptor (MOR); 0.1 μM compound relative to DAMGO): 90.0%; MOR agonist activity ([35S]GTPγS binding), FLNA-Binding Compound as Agonist 1 μM (mu opiate receptor (MOR); 1 μM compound): 216.0%; MOR agonist activity ([35S]GTPγS binding), FLNA-Binding Compound as Agonist 1 μM + BFNA (mu opiate receptor (MOR); 1 μM compound + 1 μM β-funaltrexamine): 28.0%; % DAMGO + BFNA (mu opiate receptor (MOR); 1 μM compound + BFNA relative to DAMGO + BFNA): 53.7%; % DAMGO (1 μM) (mu opiate receptor (MOR); 1 μM compound relative to DAMGO): 80.9%
CS(=O)(=O)c1ccc(S(=O)(=O)N2CCOC23CCN(CC2CC2)CC3)cc1 [Compound C0126M] | – | – | – | 108.5% | 181.8% | 108.5% | 228.4% | 119.3% | 265.3% | 50.7% | 55.4% | 67.3% | –
COc1cc(F)ccc1C(=O)CC1c2c(cc3c(c2OC)OCO3)CC[N+]1(C)C (stereo not drawn) [Compound B0007] | 43.6% | 53.1% | 57.3% | – | – | – | – | – | – | – | – | – | % DAMGO (0.1 μM) (mu opiate receptor (MOR); Series B, 0.1 μM compound, relative to DAMGO): 95.3%; MOR agonist activity, percent [35S]GTPγS binding at the stated compound concentration (mu opiate receptor (MOR); Series B, 0.1 μM compound, [35S]GTPγS binding to Gαo, striatal membranes): 168.3%; MOR agonist activity, percent [35S]GTPγS binding at the stated compound concentration (mu opiate receptor (MOR); Series B, 1 μM compound + 1 μM β-FNA): 64.5%; % DAMGO + BFNA (mu opiate receptor (MOR); Series B, 1 μM compound + β-FNA, relative to DAMGO + BFNA): 98.2%; % DAMGO (1 μM) (mu opiate receptor (MOR); Series B, 1 μM compound, relative to DAMGO): 86.1%; MOR agonist activity, percent [35S]GTPγS binding at the stated compound concentration (mu opiate receptor (MOR); Series B, 1 μM compound, [35S]GTPγS binding to Gαo, striatal membranes): 223.3%
COc1ccc(NC(=O)N2CCC3(CC2)OCCN3C(=O)Nc2ccc(OC)cc2)cc1 [Compound C0151M] | 48.3% | 51.7% | 58.7% | – | – | – | – | – | – | – | – | – | % DAMGO (0.1 μM) (mu opiate receptor (MOR); Series C-1, 0.1 μM compound, relative to DAMGO): 201.6%; Concentration of FLNA-Binding Compound as Agonist 0.1 μM (mu opiate receptor (MOR); Series C-1, 0.1 μM compound, [35S]GTPγS binding to Gαo, striatal membranes): 346.8%; Concentration of FLNA-Binding Compound as Agonist 1 μM + BFNA (mu opiate receptor (MOR); Series C-1, 1 μM compound + 1 μM β-FNA): 212.8%; % DAMGO + BFNA (mu opiate receptor (MOR); Series C-1, 1 μM compound + β-FNA, relative to DAMGO + BFNA): 233.1%; % DAMGO (1 μM) (mu opiate receptor (MOR); Series C-1, 1 μM compound, relative to DAMGO): 122.0%; Concentration of FLNA-Binding Compound as Agonist 1 μM (mu opiate receptor (MOR); Series C-1, 1 μM compound, [35S]GTPγS binding to Gαo, striatal membranes): 397.6%
CC(=O)c1ccc(S(=O)(=O)N2CCC3(CC2)NC(=O)CO3)cc1 [Compound C0087M] | – | – | – | 138.9% | 262.8% | 142.5% | 293.8% | 132.8% | 329.6% | 51.6% | 57.9% | 61.5% | –
